Laboratory results: patent US6054435A, “6-O-substituted macrolides having antibacterial activity” (priority 1999, dated 2000)
≈ marks a conversion by molar mass, not a printed value.

How the values were obtained:
Assay in all cases: in vitro antibacterial activity (MIC), agar dilution
Format in all cases: cell-based
[1] = test system: Staphylococcus aureus NCTC10649M; conditions: organism code EE; BHI agar, 35-37° C., 20 to 24 hours; unit assumed
Procedure, shortened: (§1)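 Plates of BHI agar were prepared with twelve aqueous dilutions of compound, then inoculated at 1:100 dilution, or 1:10 for slow growers like Streptococcus. After incubation they were inspected, and the lowest concentration yielding no growth, slight haze or sparse colonies was recorded as MIC.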

[2] = test system: Micrococcus luteus ATCC 4698; conditions: organism code PP; BHI agar, 35-37° C., 20 to 24 hours; unit assumed
Procedure, shortened: (§2)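 Antibacterial MIC determined by agar dilution in BHI agar with twelve successive concentrations; controls comprised compound-free plates and a same-class reference antibiotic. MIC: lowest concentration giving no growth, slight haze or sparsely isolated colonies.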

[3] = test system: Staphylococcus aureus ATCC 6538P; conditions: organism code AA; BHI agar, 35-37° C., 20 to 24 hours; unit assumed
Procedure, shortened: as §1

Escherichia coli DC-2 = conditions: organism code SS; BHI agar, 35-37° C., 20 to 24 hours; unit assumed
Procedure, shortened: as §1

[4] = test system: Staphylococcus aureus CMX 553; conditions: organism code FF; BHI agar, 35-37° C., 20 to 24 hours; unit assumed
Procedure, shortened: as §1

[5] = test system: Streptococcus Pneumonia GYR 1171; conditions: organism code YY; BHI agar, 35-37° C., 20 to 24 hours; unit assumed
Procedure, shortened: as §1

[6] = test system: Mycobacterium smegmatis ATCC 114; conditions: organism code UU; BHI agar, 35-37° C., 20 to 24 hours; unit assumed
Procedure, shortened: as §1

[7] = test system: Staphylococcus aureus CMX 642A; conditions: organism code DD; BHI agar, 35-37° C., 20 to 24 hours; unit assumed
Procedure, shortened: as §1

Candida albicans CCH 442 = conditions: organism code TT; BHI agar, 35-37° C., 20 to 24 hours; unit assumed
Procedure, shortened: as §1

[8] = test system: Staphylococcus aureus A5177; conditions: organism code BB; BHI agar, 35-37° C., 20 to 24 hours; unit assumed
Procedure, shortened: as §1

[9] = test system: Haemophilis Influenzae DILL AMP R; conditions: organism code WW; BHI agar, 35-37° C., 20 to 24 hours; unit assumed
Procedure, shortened: as §1

[10] = test system: Streptococcus Pneumonia ATCC6303; conditions: organism code XX; BHI agar, 35-37° C., 20 to 24 hours; unit assumed
Procedure, shortened: as §1

[11] = test system: Streptococcus pyogenes 930; conditions: organism code MM; BHI agar, 35-37° C., 20 to 24 hours; unit assumed
Procedure, shortened: as §1

[12] = test system: Staphylococcus epidermidis 3519; conditions: organism code HH; BHI agar, 35-37° C., 20 to 24 hours; unit assumed
Procedure, shortened: as §1

[13] = test system: Nocardia Asteroides ATCC9970; conditions: organism code VV; BHI agar, 35-37° C., 20 to 24 hours; unit assumed
Procedure, shortened: as §1

[14] = test system: Staphylococcus aureus A-5278; conditions: organism code CC; BHI agar, 35-37° C., 20 to 24 hours; unit assumed
Procedure, shortened: as §1

[15] = test system: Streptococcus pyogenes PIU 2548; conditions: organism code NN; BHI agar, 35-37° C., 20 to 24 hours; unit assumed
Procedure, shortened: as §1

[16] = test system: Streptococcus bovis A-5169; conditions: organism code JJ; BHI agar, 35-37° C., 20 to 24 hours; unit assumed
Procedure, shortened: as §1

Escherichia coli SS = conditions: organism code RR; BHI agar, 35-37° C., 20 to 24 hours; unit assumed
Procedure, shortened: as §1

[17] = test system: Streptococcus Pneumonia 5979; conditions: organism code ZZ; BHI agar, 35-37° C., 20 to 24 hours; unit assumed
Procedure, shortened: as §1

[18] = test system: Streptococcus pyogenes EES61; conditions: organism code LL; BHI agar, 35-37° C., 20 to 24 hours; unit assumed
Procedure, shortened: as §1

[19] = test system: Enterococcus faecium ATCC 8043; conditions: organism code II; BHI agar, 35-37° C., 20 to 24 hours; unit assumed
Procedure, shortened: as §1

Escherichia coli JUHL = conditions: organism code QQ; BHI agar, 35-37° C., 20 to 24 hours; unit assumed
Procedure, shortened: as §1

[20] = test system: Streptococcus agalactiae CMX 508; conditions: organism code KK; BHI agar, 35-37° C., 20 to 24 hours; unit assumed
Procedure, shortened: as §1

[21] = test system: Staphylococcus aureus 1775; conditions: organism code GG; BHI agar, 35-37° C., 20 to 24 hours; unit assumed
Procedure, shortened: as §1

[22] = test system: Micrococcus luteus ATCC 9341; conditions: organism code OO; BHI agar, 35-37° C., 20 to 24 hours; unit assumed
Procedure, shortened: as §2

[23] = test system: Streptococcus Pneumonia 5649; conditions: organism code ZZA; BHI agar, 35-37° C., 20 to 24 hours; unit assumed
Procedure, shortened: as §1

Structure (SMILES) | MIC [1] | MIC [2] | MIC [3] | MIC (Escherichia coli DC-2) | MIC [4] | MIC [5] | MIC [6] | MIC [7] | MIC (Candida albicans CCH 442) | MIC [8] | MIC [9] | MIC [10] | MIC [11] | MIC [12] | MIC [13] | MIC [14] | MIC [15] | MIC [16] | MIC (Escherichia coli SS) | MIC [17] | also measured
CC[C@H]1OC(=O)[C@H](C)C(=O)[C@H](C)[C@@H](O[C@@H]2O[C@H](C)C[C@H](N(C)C)[C@H]2O)[C@](C)(OC/C=C/c2ccc(-c3cccnc3)s2)C[C@@H](C)C(=O)[C@H](C)[C@H]2NC(=O)O[C@@]21C [Example 68] | 0.39 µg/mL (≈ 0.489 µM) | 0.39 µg/mL (≈ 0.489 µM) | 0.2 µg/mL (≈ 0.251 µM) | > 100 µg/mL | 0.39 µg/mL (≈ 0.489 µM) | ≤ 0.004 µg/mL | 3.1 µg/mL (≈ 3.88 µM) | 0.39 µg/mL (≈ 0.489 µM) | > 100 µg/mL | 6.2 µg/mL (≈ 7.77 µM) | 2 µg/mL (≈ 2.51 µM) | ≤ 0.004 µg/mL | > 100 µg/mL | 0.39 µg/mL (≈ 0.489 µM) | 0.05 µg/mL (≈ 0.0627 µM) | > 100 µg/mL | 6.2 µg/mL (≈ 7.77 µM) | 0.02 µg/mL (≈ 0.0251 µM) | 0.39 µg/mL (≈ 0.489 µM) | 0.125 µg/mL (≈ 0.157 µM) | MIC [18]: 0.05 µg/mL (≈ 0.0627 µM); MIC [19]: 0.05 µg/mL (≈ 0.0627 µM); MIC (Escherichia coli JUHL): 100 µg/mL (≈ 125 µM); MIC [20]: 0.02 µg/mL (≈ 0.0251 µM); MIC [21]: > 100 µg/mL; MIC [22]: 0.02 µg/mL (≈ 0.0251 µM); MIC [23]: 0.125 µg/mL (≈ 0.157 µM)
CC[C@H]1OC(=O)[C@H](C)C(=O)[C@H](C)[C@@H](O[C@@H]2O[C@H](C)C[C@H](N(C)C)[C@H]2O)[C@](C)(OC/C=C/c2cnc(-c3cncnc3)s2)C[C@@H](C)C(=O)[C@H](C)[C@H]2NC(=O)O[C@@]21C [Example 59] | 0.1 µg/mL (≈ 0.125 µM) | 0.1 µg/mL (≈ 0.125 µM) | 0.1 µg/mL (≈ 0.125 µM) | 50 µg/mL (≈ 62.5 µM) | 0.1 µg/mL (≈ 0.125 µM) | ≤ 0.004 µg/mL | 3.1 µg/mL (≈ 3.88 µM) | 0.1 µg/mL (≈ 0.125 µM) | > 100 µg/mL | 0.1 µg/mL (≈ 0.125 µM) | 4 µg/mL (≈ 5 µM) | ≤ 0.004 µg/mL | 6.2 µg/mL (≈ 7.75 µM) | 0.1 µg/mL (≈ 0.125 µM) | 0.02 µg/mL (≈ 0.025 µM) | > 100 µg/mL | 0.2 µg/mL (≈ 0.25 µM) | ≤ 0.005 µg/mL | 0.2 µg/mL (≈ 0.25 µM) | 4 µg/mL (≈ 5 µM) | MIC [18]: 0.01 µg/mL (≈ 0.0125 µM); MIC [19]: 0.02 µg/mL (≈ 0.025 µM); MIC (Escherichia coli JUHL): 50 µg/mL (≈ 62.5 µM); MIC [20]: 0.01 µg/mL (≈ 0.0125 µM); MIC [21]: > 100 µg/mL; MIC [22]: 0.01 µg/mL (≈ 0.0125 µM); MIC [23]: 0.5 µg/mL (≈ 0.625 µM)
CC[C@H]1OC(=O)[C@H](C)C(=O)[C@H](C)[C@@H](O[C@@H]2O[C@H](C)C[C@H](N(C)C)[C@H]2O)[C@](C)(OC/C=C/c2ccc(-c3ccc(Cl)c(Cl)c3)s2)C[C@@H](C)C(=O)[C@H](C)[C@H]2NC(=O)O[C@@]21C [Example 71] | 0.39 µg/mL (≈ 0.45 µM) | 0.39 µg/mL (≈ 0.45 µM) | 0.39 µg/mL (≈ 0.45 µM) | > 100 µg/mL | 0.39 µg/mL (≈ 0.45 µM) | 0.125 µg/mL (≈ 0.144 µM) | 0.39 µg/mL (≈ 0.45 µM) | 0.39 µg/mL (≈ 0.45 µM) | > 100 µg/mL | 0.39 µg/mL (≈ 0.45 µM) | 16 µg/mL (≈ 18.5 µM) | 0.125 µg/mL (≈ 0.144 µM) | 3.1 µg/mL (≈ 3.58 µM) | 0.39 µg/mL (≈ 0.45 µM) | 0.39 µg/mL (≈ 0.45 µM) | 12.5 µg/mL (≈ 14.4 µM) | 0.39 µg/mL (≈ 0.45 µM) | 0.05 µg/mL (≈ 0.0577 µM) | 3.1 µg/mL (≈ 3.58 µM) | 4 µg/mL (≈ 4.62 µM) | MIC [18]: 0.1 µg/mL (≈ 0.115 µM); MIC [19]: 0.39 µg/mL (≈ 0.45 µM); MIC (Escherichia coli JUHL): > 100 µg/mL; MIC [20]: 0.1 µg/mL (≈ 0.115 µM); MIC [21]: 12.5 µg/mL (≈ 14.4 µM); MIC [22]: 0.39 µg/mL (≈ 0.45 µM); MIC [23]: 1 µg/mL (≈ 1.15 µM)
CC[C@H]1OC(=O)[C@H](C)C(=O)[C@H](C)[C@@H](O[C@@H]2O[C@H](C)C[C@H](N(C)C)[C@H]2O)[C@](C)(OC/C=C/c2ncc(-c3cccnc3)s2)C[C@@H](C)C(=O)[C@H](C)[C@H]2NC(=O)O[C@@]21C [Example 54] | 0.1 µg/mL (≈ 0.125 µM) | 0.05 µg/mL (≈ 0.0626 µM) | 0.05 µg/mL (≈ 0.0626 µM) | 25 µg/mL (≈ 31.3 µM) | 0.05 µg/mL (≈ 0.0626 µM) | 0.03 µg/mL (≈ 0.0375 µM) | 3.1 µg/mL (≈ 3.88 µM) | 0.05 µg/mL (≈ 0.0626 µM) | > 100 µg/mL | 0.05 µg/mL (≈ 0.0626 µM) | 2 µg/mL (≈ 2.5 µM) | 0.03 µg/mL (≈ 0.0375 µM) | 100 µg/mL (≈ 125 µM) | 0.05 µg/mL (≈ 0.0626 µM) | 0.01 µg/mL (≈ 0.0125 µM) | > 100 µg/mL | 0.1 µg/mL (≈ 0.125 µM) | ≤ 0.005 µg/mL | 0.2 µg/mL (≈ 0.25 µM) | 4 µg/mL (≈ 5.01 µM) | MIC [18]: ≤ 0.005 µg/mL; MIC [19]: 0.02 µg/mL (≈ 0.025 µM); MIC (Escherichia coli JUHL): 1.56 µg/mL (≈ 1.95 µM); MIC [20]: ≤ 0.005 µg/mL; MIC [21]: > 100 µg/mL; MIC [22]: 0.01 µg/mL (≈ 0.0125 µM); MIC [23]: 0.25 µg/mL (≈ 0.313 µM)
